Measured values reported in patent US7902185B2, “Treatment of neurodegenerative diseases using proteasome modulators” (ALS Therapy Development Foundation, Inc., priority 2002, dated 2011).
Read-outs that look alike come from different tables or passages of the source.

How the values were obtained:
[1] = system: IκB degradation and NF-κB mediated signal transduction; details: at high doses (approximately 100 μM); cited from earlier work
[2] = system: antigen processing and MHC I expression; details: cited from earlier work
[3] = system: experimental autoimmune encephalomyelitis (EAE); details: previous animal efficacy studies, cited from earlier work
caspase 3 = target: T1, caspase 3 (Homo sapiens, UniProt P42574); details: cited from earlier work
T1 sequence (P42574 29-277): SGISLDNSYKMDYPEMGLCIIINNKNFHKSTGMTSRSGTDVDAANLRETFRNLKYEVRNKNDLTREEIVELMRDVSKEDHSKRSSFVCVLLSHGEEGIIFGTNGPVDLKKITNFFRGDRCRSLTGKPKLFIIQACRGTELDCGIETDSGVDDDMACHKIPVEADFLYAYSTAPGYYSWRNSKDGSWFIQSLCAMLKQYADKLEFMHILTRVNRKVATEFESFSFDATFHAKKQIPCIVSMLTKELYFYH

[4] = in vivo; cited from earlier work
cell proliferation = details: by arresting cells in the GI phase the cell cycle; cited from earlier work
AIDS patients = details: human, in vivo; cited from earlier work
[5] = target: LMP7 component of the immunoproteosome (Homo sapiens, UniProt P28062); details: cited from earlier work
ALS patient = test: Ritonavir treatment of an ALS patient; type: in vivo, human; details: one patient
Source text: The patient was on ventilator and non-ambulatory. The patient was paralyzed below the waist except the neck region, and communicated with head movement using Morse code based computer keys. […] The biceps and forearms of the patient were paralyzed for several years.
After administering Ritonavir® for nine months, the patient underwent neurological examination.

[6] = Maximal tolerated dose in the mouse studies; type: in vivo; details: dose of these studies is quite close to it
Protocol: The dose of Ritonavi® in these studies (50 mg/Kg) is quite close to its maximal tolerated dose.

[7] = system: SOD1 G93A mouse model of ALS; test: Survival in SOD1 G93A mouse model of ALS; details: for Female (% effect on survival) / Female (Days) survival: females; for Combined (% effect on survival) / Combined (Days) survival: males+females; for Combined (Days) survival / Female (Days) survival / Male (Days) survival: mean; for Female (Days) survival / Male (Days) survival: treated; for Male (Days) survival / Male (% effect on survival): males;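 as to all read-outs here: heterozygous transgenic SOD1 G93A mice dosed from 60 days of age until death, checked daily for death, compared with vehicle-treated controls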
Protocol: Model Description: The SOD1 G93A (high copy) mouse model is a mouse that carries 25 copies of the human G93A SOD mutation and is driven by the endogenous promoter.
Murine ALS model: Heterozygous transgenic mice carrying the human SOD-1 (G93A) gene were obtained from Jackson Laboratory (Bar Harbor, Me., USA) and experiments were performed under IRB protocol at Massachusetts College of Pharmacy.
Control Drug and Pharmacological Agent Preparation and Delivery: The drugs were formulated in suitable vehicles and control groups were given the same vehicle as treatment. […] Mice were treated from 60 days of age until death and were monitored daily for weight, neurological score and death.
Statistical Analysis: Statistical analysis on the neurological score, body weight and survival was done by utilizing ANOVA, Kaplan Meier, t-test, Cox's proportional hazards regression model and mixed linear model methods. All statistical analysis was performed using standard procedures known in the art.

[8] = system: proteasomal chymotrypsin activity; details: at 5 uM concentration; cited from earlier work
[9] = system: SOD1 G93A mouse model of ALS; test: Neurological score in SOD1 G93A mouse model of ALS; type: in vivo; details: for Neurological score significance (Males & Females combined): p value, mixed piece wise linear analysis
Protocol: Neurological Scoring: From day 85 onward, neurological score was recorded on a 4-point scale: • 0=Normal reflex on the hind limbs (animal will splay its hind limbs when lifted by its tail) • 1=Abnormal reflex (Lack of splaying of hind limbs when animal is lifted by the tail). • 2=Abnormal reflex and visible evidence of paralysis • 3=Lack of reflex and total paralysis of hind limbs. • 4=Inability to right themselves when placed on the sides in 30 seconds or found dead. The animals are sacrificed at this stage if alive.

patients with ALS = details: Borras-Blasco et al. (1998); cited from earlier work
proteasome = details: at very high concentrations; cited from earlier work
[10] = after nine months of administration
[11] = Combined Ritonavir studies (100% Litter matched), vs control
[12] = Combined Ritonavir studies (100% Litter matched)
[13] = study Ritonavir-1, 50 mg/Kg/day IP
[14] = study Ritonavir-2, 50 mg/Kg/day IP
[15] = study Ritonavir-3, 50 mg/Kg/day IP

## CC(C)c1nc(CN(C)C(=O)N[C@H](C(=O)N[C@@H](Cc2ccccc2)C[C@H](O)[C@H](Cc2ccccc2)NC(=O)OCc2cncs2)C(C)C)cs1 (relative stereo) [Ritonavir, 10-Hydroxy-2-methyl-5-(1-methylethyl)-4-thiazolyl]-3,6-dioxo-8,11-bis (phenylmethyl)-2,4,7,12-tetraazatridecan-13-oic acid, 5-thiazolylmethyl ester, [5S-(5R*,8R*,10R*,11R*)]]
[1]
  inhibition of IκB degradation and NF-κB mediated signal transduction: inhibit
[2]
  antigen processing and MHC I expression: decreased
[3]
  effect in the EAE model: protective
[3]; listed as pharmacological agent
  effect in the EAE model: prevented the development
Caspase 3
  activity of caspase 3: inhibit
[4]
  plasma levels, female animals compared to males: higher plasma levels
Cell proliferation
  cell proliferation: suppress
AIDS patients
  toleration in AIDS patients: good toleration
[5]
  binding to the LMP7 component of the immunoproteosome: binds
ALS patient; 400 mg/day for about nine months
  therapeutic effects in an ALS patient: ameliorating the effects of ALS, slowing progression of the disease, and improving survival
ALS patient; 400 mg/day
  time until beneficial therapeutic effects were experienced: after three weeks
ALS patient; [10]
  diaphragm strength (neurological examination): gained enough strength to dislodge a tracheostomy cuff when sneezing
  pectoral muscle strength: gained significant strength
  swallowing (neurological examination): able to swallow
ALS patient; after treatment
  muscles that had been paralyzed for years: again under conscious control and showed electrical nerve activity
[6]
  maximal tolerated dose: ~50 mg/kg
[7]; [11]
  Female (% effect on survival): −1%
  Combined (% effect on survival): 2%
[7]; Combined Ritonavir studies (100% Litter matched), treated N=48
  Combined (Days) survival: 141 days
[7]; [12]
  Female (Days) survival: 138 days
  Male (Days) survival: 144 days
[7]; study Ritonavir-1, vs control
  Female (% effect on survival): None
  Male (% effect on survival): 10%
[7]; study Ritonavir-1, (mean treated-mean control)/mean control*100
  Combined (% effect on survival): 5%
[7]; study Ritonavir-1, treated N=20, 50 mg/Kg/day IP
  Combined (Days) survival: 145 days
[7]; [13]
  Female (Days) survival: 141 days
  Male (Days) survival: 149 days
[7]; study Ritonavir-2, vs control
  Female (% effect on survival): 6%
  Combined (% effect on survival): 7%
  Male (% effect on survival): 8%
[7]; study Ritonavir-2, treated N=18, 50 mg/Kg/day IP
  Combined (Days) survival: 149 days
[7]; [14]
  Female (Days) survival: 144 days
  Male (Days) survival: 153 days
[7]; study Ritonavir-3, vs control
  Female (% effect on survival): −5%
  Combined (% effect on survival): 2%
  Male (% effect on survival): 7%
[7]; study Ritonavir-3, treated N=18, 50 mg/Kg/day IP
  Combined (Days) survival: 137 days
[7]; [15]
  Female (Days) survival: 134 days
  Male (Days) survival: 139 days
[7]; three separate studies
  survival, overall conclusion: prolongation
[7]; three studies, based on neurological score and survival data
  activity compared with positive control riluzole: more active
[8]
  inhibition of proteasomal chymotrypsin activity: inhibition
[9]; study Ritonavir-1
  Neurological score significance (Males & Females combined): p < 0.0001
[9]; study Ritonavir-2
  Neurological score significance (Males & Females combined): p < 0.0001
[9]; study Ritonavir-3
  Neurological score significance (Males & Females combined): p = 0.0007
[9]; three separate studies
  disease progression (neurological score), overall conclusion: reproducible slowing

## Nc1nc2ccc(OC(F)(F)F)cc2s1 [Riluzole]
Patients with ALS
  muscular strength of ALS patients: does not appear to provide an improvement

## CC(C)(C)NC(=O)[C@@H]1C[C@@H]2CCCC[C@@H]2CN1C[C@@H](O)[C@H](Cc1ccccc1)NC(=O)[C@H](CC(N)=O)NC(=O)c1ccc2ccccc2n1 [saquinavir]
proteasome
  alteration of proteasome activity: alters proteasome activity
